Target: T1, human Nox2 (Homo sapiens, UniProt P04839)
T1 construct: host or cells: T-REx-CHO (hNOX2 T-REx-CHO), tetracycline-induced; membrane fraction
T1 sequence (P04839 2-570 limits assumed): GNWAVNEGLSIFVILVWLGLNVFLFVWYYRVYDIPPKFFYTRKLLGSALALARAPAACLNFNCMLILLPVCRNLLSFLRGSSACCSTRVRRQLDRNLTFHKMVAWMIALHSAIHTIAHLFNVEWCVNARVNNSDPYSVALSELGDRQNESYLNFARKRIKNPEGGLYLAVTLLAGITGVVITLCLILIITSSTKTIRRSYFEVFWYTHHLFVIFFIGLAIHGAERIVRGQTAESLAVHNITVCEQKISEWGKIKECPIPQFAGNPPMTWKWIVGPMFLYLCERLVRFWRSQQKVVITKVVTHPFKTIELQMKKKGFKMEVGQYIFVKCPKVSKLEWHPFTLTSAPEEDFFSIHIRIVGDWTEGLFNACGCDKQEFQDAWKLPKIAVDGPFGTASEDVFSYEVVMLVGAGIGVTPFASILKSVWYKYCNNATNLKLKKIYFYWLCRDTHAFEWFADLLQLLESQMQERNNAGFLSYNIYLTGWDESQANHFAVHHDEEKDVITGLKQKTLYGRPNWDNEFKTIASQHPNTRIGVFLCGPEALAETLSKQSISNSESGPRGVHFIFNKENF
T1 sequence (P13498 2-195 partner limits assumed): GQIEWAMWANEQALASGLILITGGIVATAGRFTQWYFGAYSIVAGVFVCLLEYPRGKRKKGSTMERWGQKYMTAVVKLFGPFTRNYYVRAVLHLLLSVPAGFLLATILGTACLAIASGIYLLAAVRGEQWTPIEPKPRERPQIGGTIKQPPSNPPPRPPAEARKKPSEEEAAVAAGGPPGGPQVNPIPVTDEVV
Experiment: ROS production by membranes expressing human Nox2, cell-free Amplex Red assay
Assay type: biochemical
Settings: cell-free membranes, Amplex Red; Cheng-Prusoff; average of at least three experiments in triplicate; read-out: Ki hNox2
Procedure, shortened: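 Membranes from tetracycline-induced (1 μg/ml, 24 h) T-REx-CHO cells stably expressing hNox2 with p22 and cofactors, incubated in PBS with Amplex Red, HRP and cofactors; NADPH starts ROS production. Compounds 1 nM–100 μM, 20 min at 37 °C, then fluorescence (544/590 nm) read for 10 min; Ki by Cheng-Prusoff.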

- Ki: 813 nM
SMILES: COc1ccc(-c2c3c(=O)n(-c4ccccc4OC)[nH]c3cc(=O)n2Cc2cccnc2)c(F)c1 [Compound (1), 4-(2-fluoro-4-methoxyphenyl)-2-(2-methoxyphenyl)-5-(pyridin-3-ylmethyl)-1H-pyrazolo[4,3-c]pyridine-3,6(2H,5H)-dione]
